Reference: patent US6680326B2, “Polycyclic compounds” (Hoffmann-La Roche Inc., priority 2001, dated 2004)
In brackets after ≈: the same amount, converted by molar mass.

Tested on: HCT116 cell line (colorectal cancer)
Experiment: Anti-proliferative activity assay (WST-8, 4 days)
Type: cell-based
Conditions: Homo sapiens, HCT-116, 96 h; in vitro growth of HCT116 cells, 4 days incubation, WST-8 readout
Description: A single suspension of tumor cells was inoculated to the serially diluted 96-well microtestplate. Then the testplate was incubated in the 5% CO2 ambience at 37° C. for 4 days (2-3×10^3 cells/well). The degree of cell growth in a monolayer was measured by using WST-8 (Dojindo, Japan). IC50 values of the polycyclic compounds concerned against tumor cells were calculated as the concentration of drug yielding 50% OD of the control growth. The IC50 value measures the drug concentration for 50% inhibition of the growth of tumor cells in vitro as compared to the control.
The anti-tumor activity of polycyclic compounds of the formula [I] against in vitro growth of HCT116 cell line (colorectal cancer) is summarized in Table 1.

| Compound | IC50 [ng/mL] |
| --- | --- |
| CN(C)CCNc1nc2cc(O)ccc2c2c1C(=O)c1ccccc1-2 [Reference compound, 6-(2-dimethylamino-ethylamino)-3-hydroxy-7H-indeno[2,1-c]quinolin-7-one, reference compound] | 12 (≈ 0.036 µM) |
| Cc1cc2c(cn1)-c1c(c(NCCN(C)C)nc3cc(O)ccc13)C2=O [Example 47, 6-(2-dimethylamino-ethylamino)-3-hydroxy-9-methyl-5,10-diaza-benzo[c]fluoren-7-one] | 3.9 (≈ 0.0112 µM) |

More lines, now with the values ahead:

| IC50 [ng/mL] | Compound |
| --- | --- |
| 2.2 (≈ 0.00631 µM) | Cc1c(O)ccc2c3c(c(NCCN(C)C)nc12)C(=O)c1cnccc1-3 [Example 46, 6-(2-dimethylamino-ethylamino)-3-hydroxy-4-methyl-5,9-diaza-benzo[c]fluoren-7-one] |
| 3.9 (≈ 0.0112 µM) | Cc1c(O)ccc2c3c(c(NCCN(C)C)nc12)C(=O)c1ccncc1-3 [Example 45, 6-(2-dimethylamino-ethylamino)-3-hydroxy-4-methyl-5,10-diaza-benzo[c]fluoren-7-one] |
| 0.35 (≈ 0.00105 µM) | CN(C)CCNc1nc2cc(O)ccc2c2c1C(=O)c1cnccc1-2 [Example 41, 6-(2-dimethylamino-ethylamino)-3-hydroxy-5,9-diaza-benzo[c]fluoren-7-one] |
